Data as given in the supplement of paper PMC5412046.
Structures can show the parent of a compound that is named as a salt.

Legend:
SB.mhdgc-1 [1] = test: area under the dose-response curve of % viability (trapezoidal, 11 doses) (% viability x log10 concentration); higher = less cytotoxic; settings: SB.mhdgc-1 (hereditary c.1380delA CDH1 gastric cancer)
Method in brief: (§1)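 Reported here is DMSO-normalised viability, either at the highest concentration or as a trapezoidal area under the curve. Hereditary or sporadic patient-derived gastric cancer cells received compound by pintool at 11 threefold-diluted concentrations and were read with CellTiter-Glo after 48 h.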

SB.msgc-1 [2] = test: as above; settings: SB.msgc-1 (sporadic gastric cancer)
Method in brief: as §1

SB.mhdgc-1 [3] = test: viability at highest tested concentration (MAXR) relative to DMSO; higher = less cytotoxic; settings: SB.mhdgc-1 (hereditary c.1380delA CDH1 gastric cancer)
Method in brief: as §1

SB.msgc-1 [4] = test: as above; settings: SB.msgc-1 (sporadic gastric cancer)
Method in brief: as §1

SMILES	area under the dose-response curve (SB.mhdgc-1 [1])	area under the dose-response curve (SB.msgc-1 [2])	viability (SB.mhdgc-1 [3]) [%]	viability (SB.msgc-1 [4]) [%]
N=C1S/C(=C\c2ccc(-c3ccc4c(c3)C(=O)NC4=O)o2)C(=O)N1c1ccc(Br)cc1 [Bioymifi] (top concentration 46.0829 µM)	417	439	1.27	35.7
OC(CCN1CCCCC1)(C2CC\3CC2\C=C3)C4=CC=CC=C4 (stereo not drawn) [Biperiden] (top concentration 46.0829 µM)	575	576	95.5	119
CC[C@H](NC(=O)[C@H](C)NC)C(=O)N1C[C@@H](O)C[C@H]1Cc1c(-c2[nH]c3cc(F)ccc3c2C[C@@H]2C[C@H](O)CN2C(=O)[C@H](CC)NC(=O)[C@H](C)NC)[nH]c2cc(F)ccc12 [Birinapant] (top concentration 46.0829 µM)	315	399	25.4	32.2
CC(C)NCC(O)COc1ccc(COCCOC(C)C)cc1 (stereo not drawn) [Bisoprolol] (top concentration 46.0829 µM)	508	555	107	119
Cc1c(N)nc([C@H](CC(N)=O)NC[C@@H](N)C(N)=O)nc1C(=O)N[C@H](C(=O)N[C@@H](C)[C@H](O)[C@@H](C)C(=O)N[C@@H](C(=O)NCCc1nc(-c2nc(C(=O)NCCC[S+](C)C)cs2)cs1)[C@@H](C)O)C(O[C@H]1O[C@H](CO)[C@H](O)[C@@H](O)[C@H]1O[C@H]1O[C@H](CO)[C@@H](O)[C@H](OC(N)=O)[C@@H]1O)c1c[nH]cn1 (stereo partly drawn) [Bleomycin sulfate] (top concentration 46.0829 µM)	451	425	49.9	55.3
CC(C)C[C@H](NC(=O)[C@H](Cc1ccccc1)NC(=O)c1cnccn1)B(O)O [Bortezomib] (top concentration 46.0829 µM)	157	137	3.74	3.19
COc1cc(Nc2c(C#N)cnc3cc(OCCCN4CCN(C)CC4)c(OC)cc23)c(Cl)cc1Cl [Bosutinib] (top concentration 46.0829 µM)	494	441	15.6	36.6
Cc1cc2c(F)c(Oc3ncnn4cc(OC[C@@H](C)O)c(C)c34)ccc2[nH]1 [Brivanib] (top concentration 46.0829 µM)	504	499	20.9	58.9
O=c1[nH]c(=O)n([C@H]2C[C@H](O)[C@@H](CO)O2)cc1/C=C/Br [Brivudine] (top concentration 46.0829 µM)	563	487	121	112
CN(Cc1cc(Br)cc(Br)c1N)C1CCCCC1 [Bromhexine hydrochloride] (top concentration 46.0829 µM)	578	575	106	105
CCCC1OC2C[C@H]3[C@@H]4CCC5=CC(=O)C=C[C@]5(C)[C@H]4C(O)C[C@]3(C)[C@]2(C(=O)CO)O1 (stereo partly drawn) [Budesonide] (top concentration 46.0829 µM)	512	552	78.6	62.9
CCCCOc1ccc(CC(=O)NO)cc1 [Bufexamac] (top concentration 46.0829 µM)	479	494	1.95	56.1
COc1cc(OC)c(C(=O)CCCN2CCCC2)c(OC)c1 [Buflomedil hydrochloride] (top concentration 46.0829 µM)	514	487	89.9	86.9
CCCCNc1cc(C(=O)O)cc([S+](N)(=O)[O-])c1Oc1ccccc1 [Bumetanide] (top concentration 46.0829 µM)	525	569	120	116
CC(NC(C)(C)C)C(=O)c1cccc(Cl)c1 (stereo not drawn) [Bupropion hydrochloride] (top concentration 46.0829 µM)	522	514	89.5	102
C[S+](=O)([O-])OCCCCO[S+](C)(=O)[O-] [Busulfan] (top concentration 46.0829 µM)	501	510	23.2	52.1
CCCC[S+](=N)([O-])CCC(N)C(=O)O (stereo not drawn) [Buthionine sulphoximine] (top concentration 46.0829 µM)	517	524	111	103
Clc1ccc(CCC(Cn2ccnc2)Sc2c(Cl)cccc2Cl)cc1 (stereo not drawn) [Butoconazole nitrate] (top concentration 46.0829 µM)	426	456	24.9	31.7
CCCC[N+]1(C)[C@@H]2CC(OC(=O)[C@H](CO)c3ccccc3)C[C@H]1[C@@H]1O[C@@H]12 (stereo partly drawn) [Butylscopolamine bromide] (top concentration 46.0829 µM)	579	527	109	116
C=C1C(=O)OC(CCCCCCCC)C1C(=O)O (stereo not drawn) [C-75] (top concentration 46.0829 µM)	530	560	94.9	54.4
COc1ccc([S+](=O)([O-])Nc2cc(-c3c(O)ccc4ccccc34)c(O)c3ccccc23)cc1 [C-188-9] (top concentration 46.0829 µM)	423	469	3.52	43.1
CCCNC(=O)[C@H]1O[C@@H]1C(=O)N[C@H](C(=O)N1CCC[C@H]1C(=O)OC)C(C)CC (stereo partly drawn) [CA-074 Me] (top concentration 46.0829 µM)	512	516	19.7	13.6
